For assay [1], the target named is T1, Adenosylhomocysteinase (Homo sapiens, UniProt P23526). The assay is described as follows: Inhibition of human placental AdoHcy hydrolase.
Target sequence in this assay (P23526 whole entry): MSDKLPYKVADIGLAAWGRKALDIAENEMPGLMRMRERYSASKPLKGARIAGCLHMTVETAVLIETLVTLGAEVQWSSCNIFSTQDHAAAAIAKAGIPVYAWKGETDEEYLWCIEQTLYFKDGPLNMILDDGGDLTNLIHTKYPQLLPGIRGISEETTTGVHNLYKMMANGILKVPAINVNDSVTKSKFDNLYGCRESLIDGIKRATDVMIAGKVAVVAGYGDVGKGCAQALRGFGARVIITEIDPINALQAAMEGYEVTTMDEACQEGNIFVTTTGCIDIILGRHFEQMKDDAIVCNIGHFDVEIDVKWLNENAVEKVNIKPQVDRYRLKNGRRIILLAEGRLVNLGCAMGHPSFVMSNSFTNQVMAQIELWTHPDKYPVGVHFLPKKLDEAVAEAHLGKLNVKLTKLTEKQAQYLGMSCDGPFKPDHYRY
Assay [2] addresses T1, Adenosylhomocysteinase. The assay is described as follows: Inactivation of human placental AdoHcy hydrolase.
Target sequence in this assay (P23526 2-432 limits assumed): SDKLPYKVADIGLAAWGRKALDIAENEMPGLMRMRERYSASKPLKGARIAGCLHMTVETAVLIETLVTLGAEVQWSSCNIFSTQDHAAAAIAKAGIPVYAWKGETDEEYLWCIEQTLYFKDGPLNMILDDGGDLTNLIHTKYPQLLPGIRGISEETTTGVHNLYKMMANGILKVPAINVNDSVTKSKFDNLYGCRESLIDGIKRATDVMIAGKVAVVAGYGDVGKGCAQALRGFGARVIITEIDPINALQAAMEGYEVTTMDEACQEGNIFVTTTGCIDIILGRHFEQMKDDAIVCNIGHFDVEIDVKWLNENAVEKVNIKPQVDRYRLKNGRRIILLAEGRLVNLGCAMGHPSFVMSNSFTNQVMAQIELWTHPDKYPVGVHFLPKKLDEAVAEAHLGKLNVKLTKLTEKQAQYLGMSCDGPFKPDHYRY

The structures appear in SMILES notation.

The term Ki denotes the dissociation constant of the complex between target and ligand, obtained from inhibition or displacement. A low value points to higher affinity.

With `Nc1ncnc2c1ncn2C1O[C@H](CC(=O)OC2CC2(F)F)C(O)[C@H]1O` (single isomer, unassigned), the Ki in assay [1] turned out to be 17 µM. This molecule showed a K inact in assay [2] of 0.008 min⁻¹.

Consider `Nc1ncnc2c1ncn2C1O[C@H](CC(=O)OCCF)C(O)[C@H]1O` (single isomer, unassigned), for which the Ki in assay [1] was 75 µM. Besides, in assay [2], the K inact worked out at 0.19 min⁻¹.

Consider `Nc1ncnc2c1ncn2C1O[C@H](CC(=O)OCCCl)C(O)[C@H]1O` (single isomer, unassigned), for which, in assay [1], the inhibitory constant (Ki) was 302 µM. This molecule also displayed a K inact in assay [2] of 0.43 min⁻¹.

In assay [1], `Nc1ncnc2c1ncn2C1O[C@H](CC(=O)OC2CC2(Cl)Cl)C(O)[C@H]1O` (single isomer, unassigned) came in with a Ki of 750 µM. The molecule further came in with a K inact in assay [2] of 0.09 min⁻¹.
